Measured values as given in patent publication US9745310B2 (SK BIOPHARMACEUTICALS CO., LTD., priority 2015, dated 2017).

Target: human mGluR5 receptor (Homo sapiens (Human), UniProt P41594)
Assay: Calcium influx assay based on fluorescence (mGluR5 PAM activity)
Conditions: human mGluR5 receptor-overexpressed HEK293 cell line; L-glutamate EC20; Fluo-4, FLIPR
Protocol: Efficacy as a positive allosteric modulator (PAM) of mGluR5 of the compounds of the Examples was tested as follows:
Calcium Influx Assay Based on Fluorescence
Ca^2+ (calcium) influx assay is an experiment for measuring the activity of a positive allosteric modulator of mGluR5 receptor in which human mGluR5 receptor-overexpressed HEK293 cell line is used. The day before the experiment, cells were prepared in a cell culture medium (DMEM, 5% FBS) with the density of 80,000/well, and 100 μl of cells were dispensed into each well of a poly-D-lysine-coated 96-well plate. Cells were incubated in a 5% CO2, 37° C. incubator. The next day, the cell culture medium was removed from the plate, and 100 μl of 1× Fluo-4 calcium indicator diluted with a buffer (1× Hank's balanced salt solution, 20 mM HEPES, 2.5 mM probenecid) were added to each well and incubated at 37° C. for 1 hour. The compound stock solutions were prepared in 100% DMSO, and the compounds were serially diluted with a ¼ dilution to 6 or 7 concentrations (final concentration was 10 μM to 10 nM). The diluted compound solutions were added to the plate with 0.1 to 0.2% of final DMSO concentration. 1 hour after the addition of Fluo-4 calcium indicator, L-glutamate (EC20 concentration) and the test compound solutions were added to the plate, and Ca^2+ reaction was then measured by FLIPR at room temperature. The activity of the compounds was standardized on the basis of the results of maximum value-minimum value of fluorescent reaction, and the activity value was calculated on the basis that no activity on glutamate EC20 is 0% and the reaction to glutamate maximum value is 100%.

human mGluR5 receptor, sequence (P41594 21-1212): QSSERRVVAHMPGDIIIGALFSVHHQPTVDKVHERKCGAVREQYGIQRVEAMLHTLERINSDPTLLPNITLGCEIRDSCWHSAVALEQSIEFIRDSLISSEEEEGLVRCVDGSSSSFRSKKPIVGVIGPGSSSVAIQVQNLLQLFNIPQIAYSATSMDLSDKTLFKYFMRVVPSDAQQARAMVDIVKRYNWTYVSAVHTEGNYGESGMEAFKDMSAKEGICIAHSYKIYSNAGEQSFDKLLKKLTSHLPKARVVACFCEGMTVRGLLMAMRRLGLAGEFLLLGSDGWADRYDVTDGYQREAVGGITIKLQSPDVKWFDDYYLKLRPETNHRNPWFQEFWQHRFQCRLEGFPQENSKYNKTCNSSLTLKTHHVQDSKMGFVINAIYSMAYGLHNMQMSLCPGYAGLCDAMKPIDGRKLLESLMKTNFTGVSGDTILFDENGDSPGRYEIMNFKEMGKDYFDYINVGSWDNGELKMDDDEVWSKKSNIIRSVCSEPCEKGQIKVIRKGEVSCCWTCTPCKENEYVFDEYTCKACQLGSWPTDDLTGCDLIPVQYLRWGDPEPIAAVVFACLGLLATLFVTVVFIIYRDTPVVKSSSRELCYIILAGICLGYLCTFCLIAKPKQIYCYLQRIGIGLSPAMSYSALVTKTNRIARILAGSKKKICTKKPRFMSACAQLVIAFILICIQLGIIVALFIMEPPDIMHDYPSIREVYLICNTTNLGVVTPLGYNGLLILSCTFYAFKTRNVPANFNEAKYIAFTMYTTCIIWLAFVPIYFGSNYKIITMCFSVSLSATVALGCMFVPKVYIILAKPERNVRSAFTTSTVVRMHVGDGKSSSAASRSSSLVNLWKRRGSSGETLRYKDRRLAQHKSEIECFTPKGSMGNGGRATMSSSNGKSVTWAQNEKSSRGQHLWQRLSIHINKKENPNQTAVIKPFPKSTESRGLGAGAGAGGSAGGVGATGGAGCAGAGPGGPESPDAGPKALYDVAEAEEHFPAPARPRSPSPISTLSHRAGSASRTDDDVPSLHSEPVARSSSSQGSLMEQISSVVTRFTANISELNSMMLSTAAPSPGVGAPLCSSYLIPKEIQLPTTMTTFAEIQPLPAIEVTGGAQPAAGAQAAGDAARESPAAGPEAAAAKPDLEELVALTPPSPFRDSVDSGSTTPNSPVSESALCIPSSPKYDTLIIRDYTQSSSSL

SMILES | EC50
Fc1ccc(OCc2cn3cc(-c4ccncc4Cl)cnc3n2)cc1 [Example 49, 6-(3-chloropyridin-4-yl)-2-(4-fluorophenoxymethyl)imidazo[1,2-a]pyrimidine] | 0.5 to 1 µM
Nc1cc(F)ccc1-c1cnc2nc(COc3cncc(F)c3)cn2c1 [Example 175, 5-fluoro-2-[2-[(5-fluoro-3-pyridyl)oxymethyl]imidazo[1,2-a]pyrimidin-6-yl]aniline] | 0.5 to 1 µM
Fc1ccc(-c2cnc3nc(COc4ccccc4)cn3c2)cc1Cl [Example 13, 6-(3-chloro-4-fluorophenyl)-2-phenoxymethylimidazo[1,2-a]pyrimidine] | 0.5 to 1 µM
Oc1cc(-c2cnc3nc(COc4cccc(F)c4)cn3c2)ccc1F [Example 43, 6-(4-fluoro-3-hydroxyphenyl)-2-(3-fluorophenoxymethyl)-imidazo[1,2-a]pyrimidine] | 0.1 to 0.5 µM
Fc1ccc(-c2cnc3nc(COc4ccccc4)cn3c2)cn1 [Example 31, 6-(6-fluoropyridin-3-yl)-2-phenoxymethylimidazo[1,2-a]pyrimidine] | 0.1 to 0.5 µM
Fc1ccc(OCc2cn3cc(-c4ccc(F)nc4)cnc3n2)cc1 [Example 51, 2-[(4-fluorophenoxy)methyl]-6-(6-fluoro-3-pyridyl)imidazo[1,2-a]pyrimidine] | 0.1 to 0.5 µM
Fc1ccccc1-c1cnc2nc(COc3ccccc3)cn2c1 [Example 1, 6-(2-fluorophenyl)-2-phenoxymethylimidazo[1,2-a]pyrimidine] | 0.1 to 0.5 µM
FC(F)(F)c1cc(Cl)ccc1-c1cnc2nc(COc3ccccn3)cn2n1 [Example 189, 2-[4-chloro-2-(trifluoromethyl)phenyl]-6-(2-pyridyloxymethyl)imidazo[1,2-b][1,2,4]triazine] | 0.5 to 1 µM
Nc1cc(F)ccc1-c1cnc2nc(COc3ccc(F)cc3)cn2c1 [Example 77, 5-fluoro-2-[2-[(4-fluorophenoxy)methyl]imidazo[1,2-a]pyrimidin-6-yl]aniline] | 0.1 to 0.5 µM
Fc1ccc(-c2cnc3nc(COc4ccccc4)cn3c2)cc1 [Example 8, 6-(4-fluorophenyl)-2-phenoxymethylimidazo[1,2-a]pyrimidine] | 0.1 to 0.5 µM
Nc1ccccc1-c1cnc2nc(COc3ccc(F)cc3)cn2c1 [Example 66, 2-[2-[(4-fluorophenoxy)methyl]imidazo[1,2-a]pyrimidin-6-yl]aniline] | 0.1 to 0.5 µM
NC(=O)OCc1cc(F)ccc1-c1cnc2nc(COc3ccccc3)cn2c1 [Example 194, [5-fluoro-2-[2-(phenoxymethyl)imidazo[1,2-a]pyrimidin-6-yl]phenyl]methyl carbamate] | 0.1 to 0.5 µM
Fc1ccc(OCc2cn3cc(-c4cncc(Cl)c4)cnc3n2)cc1 [Example 88, 6-(5-chloro-3-pyridyl)-2-[(4-fluorophenoxy)methyl]imidazo[1,2-a]pyrimidine] | 0.1 to 0.5 µM
Fc1cccc(OCc2cn3cc(-c4ccc(F)cc4F)cnc3n2)c1 [Example 41, 6-(2,4-difluorophenyl)-2-(3-fluorophenoxymethyl)imidazo[1,2-a]pyrimidine] | 0.1 to 0.5 µM
NC(=O)OCc1cc(F)ccc1-c1cnc2nc(COc3ccc(F)cc3)cn2c1 [Example 193, [5-fluoro-2-[2-[(4-fluorophenoxy)methyl]imidazo[1,2-a]pyrimidin-6-yl]phenyl]methyl carbamate] | 0.1 to 0.5 µM
COc1cc(F)ccc1-c1cnc2nc(COc3ccccc3)cn2c1 [Example 20, 6-(2-methoxy-4-fluorophenyl)-2-phenoxymethylimidazo[1,2-a]pyrimidine] | 0.1 to 0.5 µM
Nc1cccc(-c2cnc3nc(COc4ccccc4)cn3c2)c1 [Example 9, 6-(3-aminophenyl)-2-phenoxymethylimidazo[1,2-a]pyrimidine] | 0.5 to 1 µM
Cc1ccc(F)cc1-c1cnc2nc(COc3ccc(F)cc3)cn2c1 [Example 61, 6-(5-fluoro-2-methyl-phenyl)-2-[(4-fluorophenoxy)methyl]imidazo[1,2-a]pyrimidine] | 0.5 to 1 µM
CC(C)c1ccccc1-c1cnc2nc(COc3ccccn3)cn2c1 [Example 143, 6-(2-isopropylphenyl)-2-(2-pyridyloxymethyl)imidazo[1,2-a]pyrimidine] | 0.5 to 1 µM
COc1cc(F)ccc1-c1cnc2nc(COc3ccccn3)cn2c1 [Example 104, 6-(4-fluoro-2-methoxyphenyl)-2-(pyridin-2-yloxymethyl)imidazo[1,2-a]pyrimidine] | 0.1 to 0.5 µM
Cc1cc(F)ccc1-c1cnc2nc(COc3cncc(F)c3)cn2c1 [Example 154, 6-(4-fluoro-2-methylphenyl)-2-(5-fluoro-pyridin-3-yloxymethyl)imidazo[1,2-a]pyrimidine] | 0.1 to 0.5 µM
Cc1ccc(-c2cnc3nc(COc4ccc(F)cc4)cn3c2)cn1 [Example 92, 2-[(4-fluorophenoxy)methyl]-6-(6-methyl-3-pyridyl)imidazo[1,2-a]pyrimidine] | 0.1 to 0.5 µM
Nc1cc(F)c(F)cc1-c1cnc2nc(COc3ccc(F)cc3)cn2c1 [Example 73, 4,5-difluoro-2-[2-[(4-fluorophenoxy)methyl]imidazo[1,2-a]pyrimidin-6-yl]aniline] | 0.5 to 1 µM
Fc1ccc(-c2cnc3nc(COc4ccnc(F)c4)cn3c2)c(C(F)(F)F)c1 [Example 174, 2-[(2-fluoro-4-pyridyl)oxymethyl]-6-[4-fluoro-2-(trifluoromethyl)phenyl]imidazo[1,2-a]pyrimidine] | 0.1 to 0.5 µM
Fc1ccc(OCc2cn3cc(-c4cnc(F)c(F)c4)cnc3n2)cc1 [Example 83, 6-(5,6-difluoro-3-pyridyl)-2-[(4-fluorophenoxy)methyl]imidazo[1,2-a]pyrimidine] | 0.1 to 0.5 µM
Oc1cc(F)ccc1-c1cnc2nc(COc3cncc(F)c3)cn2c1 [Example 156, 6-(4-fluoro-2-hydroxyphenyl)-2-(5-fluoropyridin-3-yloxymethyl)imidazo[1,2-a]pyrimidine] | 0.1 to 0.5 µM

Now from value to compound:

EC50 | SMILES
0.1 to 0.5 µM | Nc1cc(Cl)ccc1-c1cnc2nc(COc3ccc(F)cc3)cn2c1 [Example 75, 5-chloro-2-[2-[(4-fluorophenoxy)methyl]imidazo[1,2-a]pyrimidin-6-yl]aniline]
0.1 to 0.5 µM | Fc1ccc(-c2cnc3nc(COc4ccnc(Cl)c4)cn3c2)cc1 [Example 172, 2-[(2-chloro-4-pyridyl)oxymethyl]-6-(4-fluorophenyl)imidazo[1,2-a]pyrimidine]
0.1 to 0.5 µM | OCc1cc(F)ccc1-c1cnc2nc(COc3cccc(F)c3)cn2c1 [Example 96, [5-fluoro-2-[2-[(3-fluorophenoxy)methyl]imidazo[1,2-a]pyrimidin-6-yl]phenyl]methanol]
0.1 to 0.5 µM | OCc1cc(C(F)(F)F)ccc1-c1cnc2nc(COc3ccccn3)cn2c1 [Example 142, [2-[2-(2-pyridyloxymethyl)imidazo[1,2-a]pyrimidin-6-yl]-5-(trifluoromethyl)phenyl]methanol]
0.1 to 0.5 µM | FC(F)(F)c1ccc(-c2cnc3nc(COc4ccccn4)cn3c2)cn1 [Example 130, 2-(2-pyridyloxymethyl)-6-[6-(trifluoromethyl)-3-pyridyl]imidazo[1,2-a]pyrimidine]
0.1 to 0.5 µM | Nc1cc(F)ccc1-c1cnc2nc(COc3ccnc(F)c3)cn2c1 [Example 176, 5-fluoro-2-[2-[(2-fluoro-4-pyridyl)oxymethyl]imidazo[1,2-a]pyrimidin-6-yl]aniline]
0.1 to 0.5 µM | Fc1cc(OCc2cn3cc(-c4cccc(F)c4F)cnc3n2)ccn1 [Example 165, 6-(2,3-difluorophenyl)-2-(2-fluoropyridin-4-yloxymethyl)imidazo[1,2-a]pyrimidine]
0.1 to 0.5 µM | COc1cc(C#N)ccc1-c1cnc2nc(COc3cccc(F)c3)cn2c1 [Example 95, 4-[2-[(3-fluorophenoxy)methyl]imidazo[1,2-a]pyrimidin-6-yl]-3-methoxy-benzonitrile]
0.1 to 0.5 µM | Oc1ccc(OCc2cn3cc(-c4ccc(F)cc4)cnc3n2)cc1 [Example 52, 4-[[6-(4-fluorophenyl)imidazo[1,2-a]pyrimidin-2-yl]methoxy]phenol]
0.1 to 0.5 µM | COc1cc(F)ccc1-c1cnc2nc(COc3cc(F)ccn3)cn2c1 [Example 118, 6-(4-fluoro-2-methoxy-phenyl)-2-[(4-fluoro-2-pyridyl)oxymethyl)imidazo[1,2-a]pyrimidine]
0.1 to 0.5 µM | OCc1cc(F)ccc1-c1cnc2nc(COc3ccc(F)cc3)cn2c1 [Example 97, [5-fluoro-2-[2-[(4-fluorophenoxy)methyl]imidazo[1,2-a]pyrimidin-6-yl]phenyl]methanol]
0.1 to 0.5 µM | Cc1ccncc1-c1cnc2nc(COc3ccccc3)cn2c1 [Example 32, 6-(4-methylpyridin-3-yl)-2-phenoxymethylimidazo[1,2-a]pyrimidine]
0.1 to 0.5 µM | Fc1ccc(-c2cnc3nc(COc4ccnc(F)c4)cn3c2)cc1 [Example 164, 6-(4-fluorophenyl)-2-(2-fluoropyridin-4-yloxymethyl)imidazo[1,2-a]pyrimidine]
0.1 to 0.5 µM | COc1cc(F)ccc1-c1cnc2nc(COc3ccncc3)cn2c1 [Example 151, 6-(4-fluoro-2-methoxyphenyl)-2-(pyridin-4-yloxymethyl)imidazo[1,2-a]pyrimidine]
